Data set [1] is described as follows: Short term HFD mouse model: plasma and liver exposure. It is filed as in vivo. Particulars: HFD mice, 4 h after final dose. Here is the method: (§1) The in vivo transcriptional regulation of several LXR target genes by LXR modulators was assessed in mice.
(§2) For this, C57BL/6J were purchased from Elevage Janvier (Rennes, France) at the age of 8 weeks. After an acclimation period of two weeks, animals were prefed on a high fat diet (HFD) (Ssniff Spezialdiäten GmbH, Germany, Surwit EF D12330 mod, Cat. No. E15771-34), with 60 kcal % from fat plus 1% (w/w) extra cholesterol (Sigma-Aldrich, St. Louis, MO) for 5 days. Animals were maintained on this diet during treatment with LXR modulators. The test compounds were formulated in 0.5% hydroxypropylmethylcellulose (HPMC) and administered in three doses (from 1.5 to 20 mg/kg each) by oral gavage according to the following schedule: on day one, animals received treatment in the morning and the evening (ca. 17:00), on day two animals received the final treatment in the morning after a 4 h fast and were sacrificed 4 h thereafter. Animal work was conducted according to the national guidelines for animal care in Germany.
Upon termination, liver was collected, dipped in ice cold PBS for 30 seconds and cut into appropriate pieces. Pieces were snap frozen in liquid nitrogen and stored at −80° C. For the clinical chemistry analysis from plasma, alanine aminotransferase (ALT, IU/mL), cholesterol (CHOL, mg/dL) and triglycerides (TG, mg/dL) were determined using a fully-automated bench top analyzer (Respons®910, DiaSys Greiner GmbH, Flacht, Germany) with system kits provided by the manufacturer.

Data set [2] concerns LXR target genes (Scd1, Fas, Srebp1) in liver. Description: Short term HFD mouse model: gene expression in liver tissue. It is filed as in vivo. To be noted: HFD mice, expression normalized to Tbp; for response vs control in vivo at 10 mg/kg / response vs control in vivo at 20 mg/kg: Mus musculus, 4 h, read-out: Scd1 suppresion compared to vehicle. Here is the method: as §1, §2
Analysis of gene expression in liver tissue. To obtain total RNA from frozen liver tissue, samples (25 mg liver tissue) were first homogenized with RLA buffer (4M guanidin thiocyanate, 10 mM Tris, 0.97% w:v β-mercapto-ethanol). RNA was prepared using a SV 96 total RNA Isolation system (Promega, Madison, Wisconsin, USA) following the manufacturer's instructions. cDNAs were synthesized from 0.8-1 μg of total RNA using All-in-One cDNA Supermix reverse transcriptase (Absource Diagnostics, Munich, Germany). Quantitative PCR was performed and analyzed using Prime time Gene expression master mix (Integrated DNA Technologies, Coralville, Iowa, USA) and a 384-format ABI 7900HT Sequence Detection System (Applied Biosystems, Foster City, USA). The expression of the following genes was analysed: Stearoyl-CoA desaturase1 (Scd1), fatty acid synthase (Fas) and sterol regulatory element-binding protein1 (Srebp1). Specific primer and probe sequences (commercially available) are listed in Table 3. qPCR was conducted at 95° C. for 3 min, followed by 40 cycles of 95° C. for 15 s and 60° C. for 30 s. All samples were run in duplicates from the same RT-reaction. Gene expression was expressed in arbitrary units and normalized relative to the mRNA of the housekeeping gene TATA box binding protein (Tbp) using the comparative Ct method.

Where [3] appears, read: three oral doses of 10 mg/kg over two days.
The mark [4] stands for this setting: three oral doses of 20 mg/kg over two days.

The structures appear in SMILES notation.

For the molecule `CN(CCS(=O)(=O)O)C(=O)c1ccc(-c2cccc(-c3c(-c4c(C#N)cccc4C#N)c4cc(F)ccc4n3S(=O)(=O)c3ccc(C(F)F)cc3)c2)c(Cl)c1` [10/2], in data set [1] (setting [3]), the “liver exposure 4 h” value is “D (>10 μM)”, the “liver/plasma ratio 4 h” value is recorded as “B (5 to ≤30)” and the “plasma exposure 4 h” value is recorded as “D (<100 nM)”. In data set [2] (three oral doses of 10 mg/kg), the “Srebp1c suppr. compared to vehicle” value is “C (0.3 to ≤0.6)” and the response vs control in vivo at 10 mg/kg was in the range of 30 to 60%.

On to `N#Cc1cccc(C#N)c1-c1c(-c2cccc(-c3ccc(C(=O)O)cc3Cl)c2)n(S(=O)(=O)c2ccc(C(F)(F)F)nc2)c2ccc(F)cc12` [11/37], for which, in data set [1] (setting [3]), the “liver exposure 4 h” value was “C (1 μM to ≤10 μM)”, the “liver/plasma ratio 4 h” value is reported as “C (30 to ≤100)” and the “plasma exposure 4 h” value is “D (<100 nM)”. For the same molecule, in data set [2] (three oral doses of 10 mg/kg), the “Srebp1c suppr. compared to vehicle” value was “D (<0.3)” and the response vs control in vivo at 10 mg/kg is less than 30%.

For `COc1c(C(=O)O)ccc(-c2cccc(-c3c(-c4ccccc4C#N)c4cc(F)ccc4n3S(=O)(=O)c3ccc(C(F)F)cc3)c2)c1Cl` [11/27], in data set [1] (setting [4]), the “liver exposure 4 h” value is “C (1 μM to ≤10 μM)”, the “liver/plasma ratio 4 h” value is on record as “C (30 to ≤100)” and the “plasma exposure 4 h” value is given as “D (<100 nM)”. In data set [2] (three oral doses of 20 mg/kg), the “Fasn suppression compared to vehicle” value is recorded as “C (0.3 to ≤0.6)”, the “Srebp1c suppr. compared to vehicle” value was “A (>0.9)” and the response vs control in vivo at 20 mg/kg was less than 30%.

As for `O=C(O)c1ccc(-c2cccc(-c3c(-c4ccccc4C4COC4)c4cc(F)ccc4n3S(=O)(=O)c3ccc(C(F)F)cc3)c2)c(Cl)c1` [3/59], in data set [1] (setting [4]), the “liver exposure 4 h” value is on record as “C (1 μM to ≤10 μM)”, the “liver/plasma ratio 4 h” value is on record as “B (5 to ≤30)” and the “plasma exposure 4 h” value is recorded as “C (100 nM to <300 nM)”. In data set [2] (three oral doses of 20 mg/kg), the “Srebp1c suppr. compared to vehicle” value is “D (<0.3)” and the response vs control in vivo at 20 mg/kg was 30 to 60%.

For the molecule `N#Cc1cccc(C#N)c1-c1c(-c2cccc(-c3ccc(C(=O)O)cc3F)c2)n(S(=O)(=O)c2ccc(C(F)F)cc2)c2ccc(F)cc12` [11/51], in data set [1] (setting [3]), the “liver exposure 4 h” value is given as “C (1 μM to ≤10 μM)”, the “liver/plasma ratio 4 h” value was “C (30 to ≤100)” and the “plasma exposure 4 h” value was “D (<100 nM)”. Besides, in data set [2] (three oral doses of 10 mg/kg), the “Srebp1c suppr. compared to vehicle” value was “D (<0.3)” and the response vs control in vivo at 10 mg/kg is less than 30%.

Turning to `N#Cc1cccc(C#N)c1-c1c(-c2cccc(-c3ccc(C(=O)O)cc3Cl)c2)n(S(=O)(=O)C2CCC(F)(F)CC2)c2ccc(F)cc12` [11/63], in data set [1] (setting [3]), the “liver exposure 4 h” value is given as “C (1 μM to ≤10 μM)”, the “liver/plasma ratio 4 h” value is listed as “B (5 to ≤30)” and the “plasma exposure 4 h” value is given as “D (<100 nM)”. For the same molecule, in data set [2] (three oral doses of 10 mg/kg), the “Srebp1c suppr. compared to vehicle” value was “D (<0.3)” and the response vs control in vivo at 10 mg/kg was 30 to 60%.

On to `CC(=O)NS(=O)(=O)c1ccc(-c2cccc(-c3c(-c4c(C#N)cccc4C#N)c4cc(F)ccc4n3S(=O)(=O)c3ccc(C(F)F)cc3)c2)c(Cl)c1` [8/8], for which, in data set [1] (setting [3]), the “liver exposure 4 h” value was “B (300 nM to ≤1 μM)”, the “liver/plasma ratio 4 h” value is on record as “B (5 to ≤30)” and the “plasma exposure 4 h” value is “C (100 nM to <300 nM)”. For the same molecule, in data set [2] (three oral doses of 10 mg/kg), the “Srebp1c suppr. compared to vehicle” value is listed as “D (<0.3)” and the response vs control in vivo at 10 mg/kg was less than 30%.

Turning to `N#Cc1ccccc1-c1c(-c2cccc(-c3ccc(C(=O)O)cc3Cl)c2)n(S(=O)(=O)c2ccc(C(F)F)cc2)c2cnccc12` [11/49], in data set [1] (setting [4]), the “liver exposure 4 h” value was “C (1 μM to ≤10 μM)”, the “liver/plasma ratio 4 h” value is “D (>100)” and the “plasma exposure 4 h” value is given as “D (<100 nM)”. Also, in data set [2] (three oral doses of 20 mg/kg), the “Fasn suppression compared to vehicle” value is recorded as “C (0.3 to ≤0.6)”, the “Srebp1c suppr. compared to vehicle” value is listed as “C (0.3 to ≤0.6)” and the response vs control in vivo at 20 mg/kg is less than 30%.

In the case of `N#Cc1sccc1-c1c(-c2cccc(-c3ccc(C(=O)O)cc3Cl)c2)n(S(=O)(=O)c2ccc(C(F)(F)F)nc2)c2ccc(F)cc12` [11/16], in data set [1] (setting [4]), the “liver exposure 4 h” value is listed as “C (1 μM to ≤10 μM)”, the “liver/plasma ratio 4 h” value is “B (5 to ≤30)” and the “plasma exposure 4 h” value is “C (100 nM to <300 nM)”. In data set [2] (three oral doses of 20 mg/kg), the “Fasn suppression compared to vehicle” value was “A (>0.9)”, the “Srebp1c suppr. compared to vehicle” value is given as “B (0.6 to ≤0.9)” and the response vs control in vivo at 20 mg/kg is 30 to 60%.
